Results: patent US20250195490A1, “ALPHA-METHYLENE AND AMINOMETHYL LACTONES AND LACTAMS FOR TREATMENT OF CLOSTRIDIOIDES DIFFICILE INFECTION (CDI)” (Purdue Research Foundation, priority 2022, published 2025)
Converted amounts (≈) assume the structure as drawn. Like-named read-outs stand apart in the source and are kept apart here.

Assays:
[1] = test system: Bi. breve; assay: MIC against human normal gut microbiota: Bifidobacterium breve; format: cell-based; details: Bi. breve HM 856
Excerpt: (§1) The activity of the selected lactones against the human gut microbiota was also examined. Microbiota interfere with C. difficile's ability to colonize the gastrointestinal tract and subsequently cause infection. Many antibiotics inhibit/kill the endogenous microflora, which permits enhanced colonization by C. difficile and infection. Three different bacterial species that are present in the gut microflora were used in this experiment; Bifidobacterium (anaerobic Gram-positive bacteria), Bacteroides (anaerobic Gram-negative bacteria) and Lactobacillus (microaerophilic Gram-positive bacteria). Ideal compounds/drugs are those with selective antibacterial activity against C. difficile so as to protect the indigenous microflora present in the GI tract from being damaged/killed (which will exacerbate infections caused by C. difficile).
(§2) Bifidobacterium and Bacteroides were first grown for 48 hours at 37° C., anaerobically, using brain heart infusion supplemented (BHIS) agar (brain heart infusion agar supplemented with hemin, vitamin K and L-cysteine). Lactobacillus was cultivated on MRS agar and incubated in the presence of 5% CO2 for 48 hours at 37° C. Each bacterium was suspended in phosphate-buffered saline (PBS) to achieve 0.5 McFarland standard and subsequently diluted in brain heart infusion supplemented broth (for Bifidobacterium and Bacteroides) or in MRS broth (for Lactobacillus) to achieve a bacterial inoculum of approximately 5×10^5 CFU/mL. Bacteria were then seeded in 96-well plates containing serial dilutions of the compounds and incubated for 48 hours. MICs reported in Table 4 are the minimum concentration of compound/control drug that inhibited the visual growth of bacteria.

[2] = test system: Ba. dorsei; assay: MIC against human normal gut microbiota: Bacteroides dorsei; format: cell-based
Excerpt: as §1, §2

[3] = test system: Clostridioides difficile; assay: MIC by broth microdilution against Clostridioides difficile (Table 1); format: cell-based; details: anaerobic, 48 hours; strain BAA-1870
Protocol: (§3) Method: The minimum inhibitory concentration (MIC) of the compounds and control drugs, linezolid (antibiotic), vancomycin (antibiotic), 5-fluorocytosine (5-FC, antifungal drug), and fluconazole (antifungal drug) was determined using the broth microdilution method according to the guidelines outlined by the Clinical and Laboratory Standards Institute (CLSI) against clinically relevant bacterial (methicillin-resistant Staphylococcus aureus (MRSA), vancomycin-resistant Enterococcus faecalis (VRE), vancomycin-resistant Enterococcus faecium (VRE), Clostridioides difficile and Escherichia coli) and fungal (Candida albicans) strains. A solution equivalent to 0.5 McFarland standard was prepared from each strain and diluted in cation-adjusted Mueller-Hinton broth (for S. aureus and E. coli), tryptone soy broth (for E. faecalis), or brain heart infusion broth (for E. faecium) to achieve a bacterial inoculum of about 5×10^5 CFU/mL. C. difficile strains were cultured in brain heart infusion broth supplemented with hemin and vitamin K. C. albicans was diluted in RPMI medium supplemented with 3-(N-morpholino) propanesulfonic acid to achieve a fungal concentration of about 1.5×10^3 CFU/mL. Compounds and control drugs were added in the first row of the 96-well plates and diluted with media containing bacteria (to achieve a concentration gradient ranging from 128 to 1 μg/mL). For MRSA, VRE, and E. coli strains, plates were then incubated aerobically at 37° C. for at least 18 hours. C. albicans was incubated aerobically at 37° C. for 24 hours. Plates containing C. difficile were incubated anaerobically at […] for 48 hours.

[4] = test system: Ba. fragilis; assay: MIC against human normal gut microbiota: Bacteroides fragilis; format: cell-based
Excerpt: as §1, §2

[5] = test system: MRSA (USA300); assay: microbe, parasite or virus in culture; format: cell-based, Staphylococcus aureus; details: aerobic, 37° C., at least 18 hours
Protocol: as §3

[6] = test system: C. albicans; assay: Broth microdilution against Candida albicans; format: cell-based; details: gradient 128 to 1 μg/mL, 24 hours
Protocol: as §3

[7] = test system: E. faecalis (VRE); assay: microbe, parasite or virus in culture; format: cell-based, Enterococcus faecalis; details: aerobic, 37° C., at least 18 hours
Protocol: as §3

[8] = test system: clinically important Clostridioides difficile strains; assay: MIC against clinically important Clostridioides difficile strains; format: cell-based
Protocol: (§4) The antibacterial activity of compounds 48, 50, 51, 61 and 85 against a panel of Clostridioides difficile strains was evaluated. A bacterial solution equivalent to 0.5 McFarland standard was prepared and diluted in brain heart infusion broth supplemented with hemin and vitamin K. Compounds and control drugs were added in the first row of 96-well plates and serially diluted with media containing bacteria (to achieve a concentration gradient ranging from 128 to 1 μg/mL). Plates were then incubated anaerobically at […] for 48 hours.

[9] = test system: L. crispatus; assay: MIC against human normal gut microbiota: L. crispatus; format: cell-based, Lactobacillus crispatus
Excerpt: as §1, §2

[10] = test system: Bi. longum; assay: MIC against human normal gut microbiota: Bifidobacterium longum; format: cell-based; details: Bi. longum HM 848
Excerpt: as §1, §2

[11] = test system: E. faecium; assay: Broth microdilution against vancomycin-resistant E. faecium; format: cell-based, Enterococcus faecium; details: gradient 128 to 1 μg/mL
Protocol: as §3

[12] = test system: L. casei; assay: MIC against human normal gut microbiota: L. casei; format: cell-based, Lactobacillus casei; details: L. casei HM 334
Excerpt: as §1, §2

[13] = test system: L. gasseri; assay: MIC against human normal gut microbiota: L. gasseri; format: cell-based, Lactobacillus gasseri; details: L. gasseri HM 407
Excerpt: as §1, §2

[14] = test system: hypervirulent Clostridioides difficile strains; assay: MIC against hypervirulent Clostridioides difficile strains; format: cell-based
Protocol: as §4

[15] = test system: L. reuteri; assay: MIC against human normal gut microbiota: L. reuteri; format: cell-based, Lactobacillus reuteri; details: L. reuteri HM 120
Excerpt: as §1, §2

[16] = test system: E. coli (TolC mutant); assay: MIC by broth microdilution against E. coli (TolC mutant); format: cell-based, Escherichia coli; details: aerobic, 37° C., at least 18 hours
Protocol: as §3

[17] = test system: Clostridioides difficile; details: cited from earlier work

SMILES: C=C1C(=O)O[C@H](c2ccc(OCc3ccccc3)c(OC(C)=O)c2)[C@@H]1c1ccccc1Br (racemic) [Compound 85]
- MIC [1]: >128 µg/mL
- MIC ([2]; Ba. dorsei HM 29): >128 µg/mL
- MIC ([2]; Ba. dorsei HM 717): >128 µg/mL
- MIC Clostridioides difficile [3]: 4 µg/mL (≈ 8.11 µM)
- MIC ([4]; Ba. fragilis HM 709): >128 µg/mL
- MIC ([4]; Ba. fragilis HM 710): >128 µg/mL
- MIC ([4]; Ba. fragilis HM 711): >128 µg/mL
- MIC ([4]; Ba. fragilis HM 714): >128 µg/mL
- MIC MRSA (USA300) [5]: >128 µg/mL
- activity against C. albicans [6]: inactive
- MIC E. faecalis (VRE) [7]: >128 µg/mL
- MIC ([8]; CD strain 16): 4 µg/mL (≈ 8.11 µM)
- MIC ([8]; CD strain 18): 4 µg/mL (≈ 8.11 µM)
- MIC ([8]; CD strain 19): 4 µg/mL (≈ 8.11 µM)
- MIC ([8]; CD strain 1801): 2 µg/mL (≈ 4.05 µM)
- MIC ([8]; CD strain 43255): 4 µg/mL (≈ 8.11 µM)
- MIC ([8]; CD strain P6): 4 µg/mL (≈ 8.11 µM)
- MIC ([8]; CD strain P7): 4 µg/mL (≈ 8.11 µM)
- MIC ([8]; CD strain P13): 4 µg/mL (≈ 8.11 µM)
- MIC ([8]; CD strain P19): 2 µg/mL (≈ 4.05 µM)
- MIC ([9]; L. crispatus HM 375): >128 µg/mL
- MIC ([9]; L. crispatus HM 421): >128 µg/mL
- MIC [10]: >128 µg/mL
- inhibition of the tested strains of E. faecium [11]: did not inhibit
- MIC [12]: >128 µg/mL
- MIC [13]: >128 µg/mL
- MIC ([14]; CD strain 81): 4 µg/mL (≈ 8.11 µM)
- MIC ([14]; CD strain 82): 2 µg/mL (≈ 4.05 µM)
- MIC ([14]; CD strain 83): 4 µg/mL (≈ 8.11 µM)
- MIC ([14]; CD strain 84): 4 µg/mL (≈ 8.11 µM)
- MIC ([14]; CD strain 85): 2 µg/mL (≈ 4.05 µM)
- MIC ([14]; CD strain 86): 4 µg/mL (≈ 8.11 µM)
- MIC ([14]; CD strain 87): 2 µg/mL (≈ 4.05 µM)
- MIC ([14]; CD strain 90): 2 µg/mL (≈ 4.05 µM)
- MIC ([14]; CD strain 49279): 4 µg/mL (≈ 8.11 µM)
- MIC ([14]; CD strain 49287): 2 µg/mL (≈ 4.05 µM)
- MIC ([14]; CD strain 49291): 2 µg/mL (≈ 4.05 µM)
- MIC [15]: >128 µg/mL
- MIC E. coli (TolC mutant) [16]: >128 µg/mL

SMILES: CCc1c(Cl)c(O)c(Cl)c(O)c1C(=O)O[C@H]1[C@H](O)[C@H](OC)[C@H](OC/C2=C\C=C\C[C@H](O)/C(C)=C/[C@H](CC)[C@@H](O[C@@H]3OC(C)(C)[C@@H](OC(=O)C(C)C)[C@H](O)[C@@H]3O)/C(C)=C/C(C)=C/C[C@@H]([C@@H](C)O)OC2=O)O[C@@H]1C [Fidaxomicin, fidaxomicin, reference compound]
- MIC ([1]; Bifidobacterium breve, read-out: MIC): > 128 µg/mL
- MIC ([2]; Ba. dorsei HM 717): >128 µg/mL
- MIC ([2]; Bacteroides, Ba. dorsei HM 29, read-out: MIC): > 128 µg/mL
- MIC ([4]; Ba. fragilis HM 710): >128 µg/mL
- MIC ([4]; Ba. fragilis HM 711): >128 µg/mL
- MIC ([4]; Ba. fragilis HM 714): >128 µg/mL
- MIC ([4]; Bacteroides fragilis, Ba. fragilis HM 709, read-out: MIC): > 128 µg/mL
- recurrence rate ([17]; infections involving the hypervirulent strains): 24%
- recurrence rate ([17]; patients treated for an episode of recurrent C. difficile-associated diarrhea): 20%
- MIC ([8]; Clostridioides difficile, CD strain 16, read-out: MIC): 0.015 µg/mL (≈ 0.0142 µM)
- MIC ([8]; Clostridioides difficile, CD strain 18, read-out: MIC): ≤ 0.007 µg/mL
- MIC ([8]; Clostridioides difficile, CD strain 19, read-out: MIC): 0.015 µg/mL (≈ 0.0142 µM)
- MIC ([8]; Clostridioides difficile, CD strain 1801, read-out: MIC): 0.015 µg/mL (≈ 0.0142 µM)
- MIC ([8]; Clostridioides difficile, CD strain 43255, read-out: MIC): 0.03 µg/mL (≈ 0.0284 µM)
- MIC ([8]; Clostridioides difficile, CD strain P6, read-out: MIC): ≤ 0.007 µg/mL
- MIC ([8]; Clostridioides difficile, CD strain P7, read-out: MIC): ≤ 0.007 µg/mL
- MIC ([8]; Clostridioides difficile, CD strain P13, read-out: MIC): ≤ 0.007 µg/mL
- MIC ([8]; Clostridioides difficile, CD strain P19, read-out: MIC): 0.03 µg/mL (≈ 0.0284 µM)
- MIC ([9]; Lactobacillus crispatus, L. crispatus HM 375, read-out: MIC): ≤ 1 µg/mL
- MIC ([9]; Lactobacillus crispatus, L. crispatus HM 421, read-out: MIC): 2 µg/mL (≈ 1.89 µM)
- MIC ([10]; Bifidobacterium longum, read-out: MIC): 32 µg/mL (≈ 30.2 µM)
- MIC ([12]; Lacticaseibacillus casei, read-out: MIC): 2 µg/mL (≈ 1.89 µM)
- MIC ([13]; Lactobacillus gasseri, read-out: MIC): 1 µg/mL (≈ 0.945 µM)
- MIC ([14]; CD strain 84): 0/03
- MIC ([14]; Clostridioides difficile, CD strain 81): 0.03 µg/mL (≈ 0.0284 µM)
- MIC ([14]; Clostridioides difficile, CD strain 82): 0.3 µg/mL (≈ 0.284 µM)
- MIC ([14]; Clostridioides difficile, CD strain 83): 0.015 µg/mL (≈ 0.0142 µM)
- MIC ([14]; Clostridioides difficile, CD strain 85): 0.03 µg/mL (≈ 0.0284 µM)
- MIC ([14]; Clostridioides difficile, CD strain 86): 0.06 µg/mL (≈ 0.0567 µM)
- MIC ([14]; Clostridioides difficile, CD strain 87): 0.015 µg/mL (≈ 0.0142 µM)
- MIC ([14]; Clostridioides difficile, CD strain 90): ≤ 0.007 µg/mL
- MIC ([14]; Clostridioides difficile, CD strain 49279): ≤ 0.007 µg/mL
- MIC ([14]; Clostridioides difficile, CD strain 49287): ≤ 0.007 µg/mL
- MIC ([14]; Clostridioides difficile, CD strain 49291): ≤ 0.007 µg/mL
- MIC ([15]; Limosilactobacillus reuteri, read-out: MIC): 128 µg/mL (≈ 121 µM)
